Assay results taken from patent US4300557A, “Method for treating intraocular malignancies” (The United States of America as represented by the …, priority 1980, dated 1981).
Where two headings read alike, the source gives them in different places.

Legend:
[1] = ethanol in silicone rubber capsule, Schmidt et al.; cited from earlier work
[2] = Stability of BCNU in aqueous solution (absorbance at 232 nm); type: physicochemical
Source text: The decomposition of BCNU in water and in 1% aqueous ethanol was followed by measuring the characteristic BCNU absorbance maximum at 232 nm, using a Beckman DK-2A spectrophotometer. A second maximum that appeared at 190 nm and increased during decomposition was not a reliable indicator of the drug's breakdown.

[3] = Solubility and stability of BCNU in vehicles (statements); type: physicochemical
[4] = cited from earlier work
E. coli = test: Microbiological assay of BCNU: inhibition of E. coli in agar plates; type: cell-based
Method: BCNU activity was evaluated by placing a silicone balloon containing BCNU in 0.2 ml of ethanol in a gelled agar plate seeded with E. coli (10^6 colonies/ml). The balloon was covered with a layer of seeded agar. The culture was incubated overnight at 35° C. and the zone of inhibition was measured. The balloons were transferred daily to new plates and the procedure repeated as long as activity was detected. The diameters of the zones of inhibition were compared with a standard semilogarythmic plot obtained using known amount of BCNU absorbed in filter paper about the size of the balloons. […] In control experiments with balloons filled with 0.2 ml of ethanol no inhibition of E. coli was observed. After a single overnight incubation, all of the alcohol had diffused from the balloon.
The smaller zone was very clear, and probably totally free of bacterial growth. The larger one was distinct, but had some diffuse bacterial growth. […] The microbiological assay is a useful test of cytotoxic activity of the implants, but the results are only semiquantitative, owing to simultaneous decomposition and diffusion of BCNU.
A 10 mg sample of solid was placed in a 7-mm-diameter reservoir made of two silicone membranes (0.1 mm thick) separated by a silicone rubber ring spacer (1.0 mm wide×1.5 mm thick) and glued with silicone adhesive. The sandwich-type silicone device containing 10 mg of solid BCNU was imbedded in agar plates seeded with E. coli and incubated repeatedly as in Example 5(a).

Brown-Pearce epithelioma = test: Histopathological observations of enucleated rabbit eyes with Brown-Pearce epithelioma; type: in vivo, New Zealand female albino rabbits
Source text: Preoperative examination of 28 eyes in 14 New Zealand femal albino rabbits weighing 2.0 to 2.5 kg included biomicroscopy, tonotometry, and indirect ophthalmoscopy. All animals had normal eyes. Both eyes of each animal were inoculated intracamerally with Brown-Pearce epithelioma tissue by the technique at 993 of Liu et al., Invest. Ophthalmol Visual Sci., Vol. 17 (1978).
Three days after tumor tissue implantation, a silicone device described in Example 1 was implanted episclerally in each eye. Animals were anesthetized with sodium pentobarbital 24 mg/kg body weight administered intravenously. After routine preparation of the rabbit and the eyes, a pocket beneath the conjunctiva and Tenon's capsule was made in the upper temporal quadrant of the eye. The silicone device was inserted into the pocket but the small tube remained accessible to permit injection of test substance. Two 7-0 silk sutures were applied on both shoulders of the silicone device and on the episcleral tissue at the pars plana to hold the device in position. The conjunctiva was closed with two 7-0 silk sutures. Then 0.15 ml of the BCNU solution or the diluent (control) was injected into the device with a tuberculin syringe and a 30-gauge needle through the tube which was outside the closed conjunctiva as shown in FIG. 5. The injecting tube was fixed on the upper fornix.
Seven animals (Group 1A) received 3.0 mg of BCNU in 0.15 ml of sesame oil in one eye on the third, sixth, and ninth days after tumor implantation (total dose 9.0 mg). Three animals (Group 1B) received 12.0 mg of BCNU in 0.15 ml of sesame oil on the same schedule (total dose 36.0/mg). Four animals (Group II) received 13.0 mg of BCNU in pure ethanol on the third and sixth days after tumor implantation (total dose 26.0 mg). The fellow eyes served as controls and received diluent only.
Ocular examinations were made on alternate days during the 20 days following tumor implantation; at that time all eyes were enucleated. The effectiveness of treatment was measured by (1) comparing the extent of tumor growth in the anterior chamber of treated and control eyes, (2) noting the occurrence of distortion and perforation of the globe due to tumor growth, (3) weighing all eyes following enucleation, and (4) comparing the histopathologic changes in the eyes.
The enucleated eyes were fixed in 10% buffered formalin in preparation for histopathological examination. A sagittal section on either side of the optic nerve was made. Pupil-optic nerve sections and the two calottes were processed routinely for histologic evaluation, using hematoxyline and eosin (H&E) stain. The eyes were imbedded in paraffin and cut in sections 6μ thick for light microscopy. Every fifth section was stained. About 50 sections from each eye were examined.

[5] = cited from earlier work; remark: listed apart in the source

O=NN(CCCl)C(=O)NCCCl [BCNU, 1,3-bis-(2-chloroethyl)-1-nitrosourea]
decrease in BCNU concentration in the dialysate [1]: rapid decrease in BCNU concentration in the dialysate | half-life ([2]; 1% ethanol, 1% ethanol solution, of the order of, read-out: Decomposition of BCNU in 1% ethanol solution): ~4.1 h | half-life ([2]; 1% ethanol, 37° C., read-out: half-life of BCNU in 1% ethanol): 4.1 h | half-life ([2]; water, 37° C., read-out: half-life of BCNU in water): 3.83 h | solubility in absolute ethanol ([3]; absolute ethanol as solvent for BCNU): excellent solvent for BCNU | solubility in sesame oil ([3]; sesame oil): fairly soluble | stability in sesame oil ([3]; sesame oil): relatively stable | degradation in aqueous media [4]: degrades rapidly in aqueous media | depletion of drug activity, solid BCNU in sandwich-type silicone device (E. coli; 10 mg solid BCNU versus 10 mg BCNU in 0.2 ml ethanol in balloon): depletion of drug activity similar to that obtained with 10 mg BCNU in 0.2 ml ethanol in a silicone balloon | activity in the seventh incubation (E. coli; 30 and 40 mg BCNU in 0.2 ml ethanol): zero activity | activity in consecutive incubations (E. coli; 30 and 40 mg BCNU in 0.2 ml ethanol, daily incubations at 35° C.): comparable activity for six consecutive incubations | duration of inhibition of growth of E. coli cultures (E. coli; 30 or 40 mg BCNU in ethanol, silicone microballoons): 6 days | zones of inhibition (E. coli; BCNU in 0.2 ml ethanol, balloons, overnight 35° C.): two concentric and distinct zones of inhibition | BCNU remaining inside balloons after first incubation in agar (E. coli; BCNU in ethanol): essentially pure BCNU remains inside the balloons | BCNU content of balloons after first night's incubation (E. coli; BCNU in ethanol, after first overnight incubation): ~100% | inhibitory activity versus filter paper impregnated with known amounts of BCNU (E. coli; ethanolic solutions in silicone microballoons): unimpaired | infiltration and extrascleral extension, histology (Brown-Pearce epithelioma; Group I, BCNU in sesame oil): The inner scleral and corneal lamellae were infiltrated with tumor; no extrascleral extension was noted | mitotic index (Brown-Pearce epithelioma; Group I, BCNU in sesame oil): remained high | necrosis (Brown-Pearce epithelioma; Group I, BCNU in sesame oil): necrosis was prominent | tumor extent, histology (Brown-Pearce epithelioma; Group I, BCNU in sesame oil): Tumor growth tended to be limited to the anterior segment, but in some instances replaced the iris and ciliary body | intraocular architecture and invasion of the cornea or sclera (Brown-Pearce epithelioma; Group II, BCNU in pure ethanol): Normal intraocular architecture was maintained, with no evidence of invasion of the cornea or sclera | mitotic index (Brown-Pearce epithelioma; Group II, BCNU in pure ethanol): 6 to 8 per high power field | necrosis versus control eyes (Brown-Pearce epithelioma; Group II, BCNU in pure ethanol): less prominent than in control eyes | reduction of tumor growth, histology (Brown-Pearce epithelioma; Group II, BCNU in pure ethanol): most significant reduction of tumor growth | tumor extent, histology (Brown-Pearce epithelioma; Group II, BCNU in pure ethanol): Only small foci of tumor, limited to the anterior segment | tumor nodules in iris and ciliary body, histology (Brown-Pearce epithelioma; Group II, BCNU in pure ethanol): small nodules of tumor were found in the iris stroma and iris root with occasional involvement of the ciliary body | histological difference between Group IA and Group IB eyes (Brown-Pearce epithelioma; total 9.0 mg versus total 36.0 mg BCNU in sesame oil): no observable difference histologically | reported half-life of BCNU in water ([5]; Montgomery et al., J. Med. Chem. 1967): 5.08 h | reported half-life of BCNU in water ([5]; Schmidt et al., supra): 2.33 h | Decomposition of BCNU in water ([5]; in water, of the order of): 140 to 305 min
